# Experimental data published in patent US20200054058A1, “Sweetness and Taste Improvement of Steviol Glycoside and Mogroside Sweeteners with Dihydrochalcones” (The Coca-Cola Company, priority 2017, published 2020).
# Like-named read-outs stand apart in the source and are kept apart here.
# Assays:
# panelists [1] = settings: 250 ppm 1,6-α-isomer of Siamenoside I in acidic water; one panelist; slightly less
# panelist [2] = settings: Isomer of Siamenoside I in acidic water (100 ppm, Table 4); one panelist
# Excerpt: The panelist was asked to evaluate the sweetness of the samples against the 3%, 5%, and 8% sucrose solutions and describe the taste profiles.
# panelists [3] = test: Sensory tasting of mock beverages with Reb-J, Reb-N, Reb-O, Reb-M with and without CC-00800 against sucrose references (Example 6); type: in vivo, human; settings: for enhancement of overall sweetness by hesperitin dihydrochalcone: 10 ppm hesperitin dihydrochalcone added to the steviol glycoside beverage, all panelists; for sweetness and bitterness rank among Reb-J, Reb-N, Reb-O, Reb-M: mock beverages without hesperitin dihydrochalcone
# Method: Steviol glycosides, namely Reb-J, Reb-N, Reb-M, Reb-O with 95% purity were purchased from commercial sources.
# A 6% stock solution of CC-00800 (hesperitin dihydrochalcone, “HDC”) was made in propylene glycol (PG) food grade and used in subsequent experiments.
# Acidified mock beverages (100 grams) were made using the following ingredients (in grams) in order:
# All ingredients were dissolved in carbon-filtered water and the resulting beverage was filled in 300 ml glass bottles and immediately refrigerated (4° C.). Beverages were bench tasted when cold.
# Four experienced panelists bench tasted the beverages blindly. Each panelist was given warm bottled water and unsalted crackers to eat and rinse the palate between samples. A maximum of 3 samples was tasted at each session to avoid fatigue.
# The first session consisted of tasting beverages without hesperitin dihydrochalcone.
# The second session consisted of tasting the beverages with hesperitin dihydrochalcone added (10 ppm). All panelists agreed that hesperitin dihydrochalcone enhanced the overall sweetness for about 1 Brix for Reb-J, Reb-O, and Reb-N, while Reb-M was enhanced with about 2.5 Brix.
# panelists [4] = test: Taste evaluation of NHDC with rebaudioside M in acidic water against sucrose solutions (Example 2); type: in vivo, human; settings: both panelists
# Excerpt: First, the panelists assessed the sweetness of 5 ppm of NHDC in acidic water against 1.5% sucrose solution in acidic water.
# Next, panelists compared the sweetness profile of (i) a sample containing 150 ppm rebaudioside M and (ii) a sample containing 5 ppm NHDC and 150 rebaudioside M to the 6%, 8%, and 10% sucrose solutions.
# panelist [5] = test: Taste evaluation of phloretin with rebaudioside M in acidic water against sucrose solutions (Example 1); type: in vivo, human; settings: one panelist
# Excerpt: First, the panelist assessed the sweetness of 40 ppm of phloretin in acidic water against a 1.5% sucrose solution in acidic water. 40 ppm of phloretin was reported to have a sweetness less than the sweetness of the 1.5% sucrose solution.
# Next, the panelist compared the sweetness profile of (i) the sample containing 150 ppm rebaudioside M in acidic water and (ii) the sample containing 40 ppm phloretin and 150 ppm rebaudioside M in acidic water to the 5%, 7%, 8%, 9%, and 10% sucrose solutions.
# panelists [6] = test: Taste evaluation of hesperetin dihydrochalcone with rebaudioside M in acidic water against sucrose solutions (Example 3); type: in vivo, human; settings: 150 ppm rebaudioside M in acidic water; both panelists; slightly less sweet
# Excerpt: Panelists compared the sweetness profile of (i) a sample containing 150 ppm rebaudioside M and (ii) a sample containing 40 ppm hesperetin dihydrochalcone and 150 ppm rebaudioside M to the 4%, 6%, 8%, and 10% sucrose solutions.
# panelists [7] = test: Bench tasting of acidified mock beverages, CC-00800 + Reb-M (Example 5); type: in vivo, human; settings: 472 ppm Reb-M, control mock beverage (Bev. #7); five panelists
# Method: Rebaudioside M was acquired from Pure Circle (86% Reb-M, 9% Reb-D, 0.8% Reb-A, plus other steviol glycosides in minor amount).
# A 6% stock solution of Hesperetin Dihydrochalcone (CC-00800) was made in propylene glycol (PG) food grade and used in subsequent experiments.
# Acidified mock beverages (300 grams) were made using the following ingredients (in grams) in order:
# All ingredients were dissolved in carbon-filtered water and the resulting beverage was filled in 300 ml glass bottles and immediately refrigerated (4° C.). Beverages were bench tasted next morning.
# Five experienced panelists bench tasted the beverages blindly. Each panelist was given warm bottled water and unsalted crackers to eat and rinse the palate between samples. A maximum of 3 samples was tasted at each session to avoid fatigue.
# panelists [8] = type: in vivo, human; settings: 250 ppm Rebaudioside M in acidic water; for sweetness in sucrose equivalents: slightly less sweet
# panelists [9] = settings: 250 ppm Siamenoside I in acidic water; one panelist
# panelists [10] = test: Taste evaluation of hesperetin dihydrochalcone with siamenoside I in acidic water against sucrose solutions (Example 4); type: in vivo, human; settings: 150 ppm siamenoside I in acidic water; both panelists; slightly less sweet
# Excerpt: Panelists compared the sweetness profile of (i) a sample containing 150 ppm siamenoside I and (ii) a sample containing 40 ppm hesperetin dihydrochalcone and 150 ppm siamenoside I to the 4%, 6%, 8%, and 10% sucrose solutions.
# [11] = 10 ppm hesperitin dihydrochalcone added
# [12] = 150 ppm rebaudioside M in acidic water
compound,measurement,setting,value
"C[C@H](CC[C@@H](O[C@@H]1O[C@H](CO[C@H]2O[C@H](CO)[C@@H](O)[C@H](O)[C@H]2O)[C@@H](O)[C@H](O)[C@H]1O[C@@H]1O[C@H](CO)[C@@H](O)[C@H](O)[C@H]1O)C(C)(C)O)[C@H]1CC[C@@]2(C)[C@@H]3CC=C4[C@@H](CC[C@H](O[C@@H]5O[C@H](CO)[C@@H](O)[C@H](O)[C@H]5O)C4(C)C)[C@]3(C)[C@H](O)C[C@]12C [1,6-α-isomer of Siamenoside I, mogro-3-O-[β-D-glucopyranoside]-24-O-{[β-D-glucopyranosyl-(1→2)]-[α-D-glucopyranosyl-(1→6)]-β-O-D-glucopyranoside}]",sweetness in sucrose equivalents,panelists [1],less than 7 % sucrose
same,sweetness against sucrose solutions,panelist [2],~4 % sucrose
"COc1ccc(CCC(=O)c2c(O)cc(O)cc2O)cc1O [Hesperitin dihydrochalcone, 3-(3-Hydroxy-4-methoxyphenyl)-1-(2,4,6-trihydroxyphenyl)-1-propanone]",effect on bitterness and other off-notes of steviol glycoside beverages,panelists [3]; [11],reduced significantly
same,effect on mouth feel of steviol glycoside beverages,panelists [3]; [11],improved
"COc1ccc(CCC(=O)c2c(O)cc(O[C@@H]3O[C@H](CO)[C@@H](O)[C@H](O)[C@H]3O[C@@H]3O[C@@H](C)[C@H](O)[C@@H](O)[C@H]3O)cc2O)cc1O [NHDC, 1-[4-[[(2S,3R,4S,5S,6R)-4,5-Dihydroxy-6-(hydroxymethyl)-3-[[(2S,3R,4R,5R,6S)-3,4,5-trihydroxy-6-methyl-2-tetrahydropyranyl]oxy]-2-tetrahydropyranyl]oxy]-2,6-dihydroxyphenyl]-3-(3-hydroxy-4-methoxyphenyl)propan-1-one]",sweetness against sucrose solution,panelists [4]; 5 ppm NHDC in acidic water,< 1.5 % sucrose
"C=C1C[C@@]23CC[C@H]4[C@@](C)(CCC[C@@]4(C)C(=O)O[C@@H]4O[C@H](CO)[C@@H](O)[C@H](O)[C@H]4O[C@@H]4O[C@@H](C)[C@H](O)[C@@H](O)[C@H]4O)[C@@H]2CC[C@]1(O[C@@H]1O[C@H](CO)[C@@H](O)[C@H](O[C@@H]2O[C@H](CO)[C@@H](O)[C@H](O)[C@H]2O)[C@H]1O[C@@H]1O[C@H](CO)[C@@H](O)[C@H](O)[C@H]1O)C3 [Reb-J, rebaudioside J]",enhancement of overall sweetness by hesperitin dihydrochalcone,panelists [3],about 1 Brix
same,"sweetness and bitterness rank among Reb-J, Reb-N, Reb-O, Reb-M",panelists [3],least sweet and most bitter
"C=C1C[C@@]23CC[C@H]4[C@@](C)(CCC[C@@]4(C)C(=O)O[C@@H]4O[C@H](CO)[C@@H](O)[C@H](O[C@@H]5O[C@H](CO)[C@@H](O)[C@H](O)[C@H]5O)[C@H]4O[C@@H]4O[C@@H](C)[C@H](O)[C@@H](O)[C@H]4O)[C@@H]2CC[C@]1(O[C@@H]1O[C@H](CO)[C@@H](O)[C@H](O[C@@H]2O[C@H](CO)[C@@H](O)[C@H](O)[C@H]2O)[C@H]1O[C@@H]1O[C@H](CO)[C@@H](O)[C@H](O)[C@H]1O)C3 [Reb-N, rebaudioside N]",enhancement of overall sweetness by hesperitin dihydrochalcone,panelists [3],about 1 Brix
"C=C1C[C@@]23CC[C@H]4[C@@](C)(CCC[C@@]4(C)C(=O)O[C@@H]4O[C@H](CO)[C@@H](O)[C@H](O[C@@H]5O[C@H](CO)[C@@H](O)[C@H](O)[C@H]5O)[C@H]4O[C@@H]4O[C@@H](C)[C@H](O)[C@@H](O[C@@H]5O[C@H](CO)[C@@H](O)[C@H](O)[C@H]5O)[C@H]4O)[C@@H]2CC[C@]1(O[C@@H]1O[C@H](CO)[C@@H](O)[C@H](O[C@@H]2O[C@H](CO)[C@@H](O)[C@H](O)[C@H]2O)[C@H]1O[C@@H]1O[C@H](CO)[C@@H](O)[C@H](O)[C@H]1O)C3 [Reb-O, rebaudioside O]",enhancement of overall sweetness by hesperitin dihydrochalcone,panelists [3],about 1 Brix
"O=C(CCc1ccc(O)cc1)c1c(O)cc(O)cc1O [phloretin, 3-(4-hydroxyphenyl)-1-(2,4,6-trihydroxyphenyl)propan-1-one]",sweetness against sucrose solution,panelist [5]; 40 ppm phloretin in acidic water,< 1.5 % sucrose
C=C1C[C@@]23CC[C@H]4[C@@](C)(CCC[C@@]4(C)C(=O)O[C@@H]4O[C@H](CO)[C@@H](O)[C@H](O[C@@H]5O[C@H](CO)[C@@H](O)[C@H](O)[C@H]5O)[C@H]4O[C@@H]4O[C@H](CO)[C@@H](O)[C@H](O)[C@H]4O)[C@@H]2CC[C@]1(O[C@@H]1O[C@H](CO)[C@@H](O)[C@H](O[C@@H]2O[C@H](CO)[C@@H](O)[C@H](O)[C@H]2O)[C@H]1O[C@@H]1O[C@H](CO)[C@@H](O)[C@H](O)[C@H]1O)C3 [rebaudioside M],sweetness against sucrose solutions,panelists [6],< 6 % sucrose
same,sweetness against sucrose solutions,panelists [4]; [12],6 % sucrose
same,enhancement of overall sweetness by hesperitin dihydrochalcone,panelists [3],about 2.5 Brix
same,"sweetness and bitterness rank among Reb-J, Reb-N, Reb-O, Reb-M",panelists [3],sweetest
same,aftertaste of control,panelists [7],"sweet lingering, licorice and bitter aftertaste observed in the control"
same,sweetness and mouthfeel compared with sample also containing Hesperetin dihydrochalcone-4′-beta-D-glucoside,panelists [8]; both panelists,less sweet and less mouthfeel
same,sweetness in sucrose equivalents,panelists [8]; one panelist,< 7 % sucrose
same,sweetness in sucrose equivalents,panelists [8]; the other panelist,< 8 % sucrose
same,sweetness against sucrose solutions,panelist [5]; [12],6 % sucrose
C[C@H](CC[C@@H](O[C@@H]1O[C@H](CO[C@@H]2O[C@H](CO)[C@@H](O)[C@H](O)[C@H]2O)[C@@H](O)[C@H](O)[C@H]1O[C@@H]1O[C@H](CO)[C@@H](O)[C@H](O)[C@H]1O)C(C)(C)O)[C@H]1CC[C@@]2(C)[C@@H]3CC=C4[C@@H](CC[C@H](O[C@@H]5O[C@H](CO)[C@@H](O)[C@H](O)[C@H]5O)C4(C)C)[C@]3(C)[C@H](O)C[C@]12C [siamenoside I],sweetness in sucrose equivalents,panelists [9],~6 % sucrose
same,sweetness against sucrose solutions,panelists [10],< 6 % sucrose
